From US20230399368A1, “CARRIER PEPTIDE FRAGMENT AND USE THEREOF” (TOAGOSEI CO., LTD., priority 2020, published 2023)
Entries after “also recorded” stand apart in the source; their conditions may differ. FAM = fluorescent dye FAM

Tested on: HeLa cells
Assay: Evaluation of the cell membrane permeability by flow cytometry (FAM fluorescence) in HeLa cell culture
Format: cell-based, human
Conditions: for MFI (mean fluorescent intensity): 10 μM in culture medium, 0.5% DMSO, 20 hours incubation at 37° C., detector FL2, mean value of triplicate; for introduction of the fluorescent dye (FAM) into the cytoplasm, shift of the flow cytometry histogram on the X-axis (FIG. 1): compared with Example 3 (only FAM) or Example 2
Description: The cell membrane permeability of sample 1 and sample 2 was evaluated using HeLa cells (an established cell line derived from human cervical cancer cells) as the eukaryotic cells.
HeLa cells were cultured on DMEM (Dulbecco's modified Eagle's medium (Cat. No. 043-30085, from FUJIFILM Wako Pure Chemical Corporation)) containing 10% FBS (fetal bovine serum), which is a general culture medium.
The HeLa cells attached to the culture plate were washed with PBS, a 0.25% trypsin/EDTA solution was then added, and incubation was carried out for 3 minutes at 37° C. After this incubation, the aforementioned DMEM containing 10% FBS was added and the trypsin was inactivated, and the cells were then sedimented by carrying out centrifugal separation for 5 minutes at 150×g. The supernatant produced by the centrifugal separation was removed, and the aforementioned DMEM containing 10% FBS was added to the sediment (cell pellet) to prepare a cell suspension containing approximately 1×10^5 cells/mL. The cells were seeded (approximately 2×10^5 cells/well) by the addition of 2 mL of this cell suspension to the wells of a commercial 6-well plate (Iwaki). The cells were attached to the well bottom by culture for 3 hours at 37° C. under the condition of 5% CO2. In order to perform the evaluation of the cell membrane permeability in triplicate, the cells were seeded to three wells for the test of Example 1 and the following procedure was performed on each well.
The 2 mM sample solution 1 was then diluted with the aforementioned DMEM containing 10% FBS to prepare a sample solution 1 in which the sample 1 concentration was 20 μM. After the aforementioned 3-hour culture, 1 mL of the culture supernatant was removed from the well, followed by the addition to the well of 1 mL of the 20 μM sample solution 1 (i.e., the concentration of sample 1 in the culture medium in the well was brought to 10 μM and the DMSO concentration was brought to 0.5%). The cells were incubated for 20 hours at 37° C. under the condition of 5% CO2. After this 20-hour incubation, the culture supernatant was removed from the well and the cells in the well were washed twice with 1 mL PBS. 200 μL of a 0.25% trypsin/EDTA solution was then added to the well and incubation was carried out for 3 minutes at 37° C. After this incubation, the trypsin was inactivated by the addition of 400 μL of the aforementioned DMEM containing 10% FBS to the well, and the cells were subsequently recovered by transferring the cell suspension in the well to a tube. The well was then washed by the further addition of 600 μL PBS to the well. The cells that had remained in the well were recovered to the tube by transferring the PBS in the well to the tube. Centrifugal separation was run on this tube for 5 minutes using conditions of 4° C. and 210×g. After the centrifugal separation, the supernatant was removed, the sediment (cell pellet) was suspended (washed) with 1 mL of PBS, and centrifugal separation was carried out using the same conditions as before. After this procedure had been performed twice, the supernatant was removed to obtain cells (cell pellet) that had been cultured on a sample 1-containing culture medium.
The cell membrane permeability of sample 1 was evaluated using the resulting cells (cell pellet) and a flow cytometer. An On-Chip Flow Cytometer (On-chip Biotechnologies Co., Ltd.) was used for the flow cytometer.
For this analysis, the cell pellet obtained as described above was suspended in 50 μL PBS. To this suspension was added 50 μL of Sample Buffer 2× for use with the indicated flow cytometer to prepare a cell suspension for submission to analysis.
Gating was performed using this flow cytometer based on forward scatter (FSC) and side scatter (SSC); the gating was set for the cell population that was the target of the analysis; and the fluorescent intensity was measured for the cell population within this gating. The analysis was performed so this cell population reached at least 5,000 or more. […]

Substance	MFI (mean fluorescent intensity)	introduction of the fluorescent dye (FAM) into the cytoplasm, shift of the flow cytometry histogram on the X-axis (FIG. 1) (10 μM, 20 hours incubation)	efficiency (cell membrane permeability) compared using the MFI, Example 1 versus Example 2 (10 μM, 20 hours incubation, ratio of MFI of Table 3)
5(6)-carboxyfluorescein [Example 3, reference compound]	6		
FAM-KKRTLRKNDRKKR-CONH2 ({FAM}-KKRTLRKNDRKKR-NH2) [Example 2, reference compound]	15.5	more efficiently introduced	
FAM-MAPRGFSCLLLLTSEIDLPVKRRA-COOH ({FAM}-MAPRGFSCLLLLTSEIDLPVKRRA-OH; listed as Homo sapiens) [Example 1]	33.7	more efficiently introduced; also recorded: shifted more to the right on the X-axis than was the histogram for Example 2	approximately twice as high
